Data set [1] concerns the target T1, Eukaryotic elongation factor 2 kinase (Homo sapiens, UniProt O00418).
T1 sequence (O00418 whole entry): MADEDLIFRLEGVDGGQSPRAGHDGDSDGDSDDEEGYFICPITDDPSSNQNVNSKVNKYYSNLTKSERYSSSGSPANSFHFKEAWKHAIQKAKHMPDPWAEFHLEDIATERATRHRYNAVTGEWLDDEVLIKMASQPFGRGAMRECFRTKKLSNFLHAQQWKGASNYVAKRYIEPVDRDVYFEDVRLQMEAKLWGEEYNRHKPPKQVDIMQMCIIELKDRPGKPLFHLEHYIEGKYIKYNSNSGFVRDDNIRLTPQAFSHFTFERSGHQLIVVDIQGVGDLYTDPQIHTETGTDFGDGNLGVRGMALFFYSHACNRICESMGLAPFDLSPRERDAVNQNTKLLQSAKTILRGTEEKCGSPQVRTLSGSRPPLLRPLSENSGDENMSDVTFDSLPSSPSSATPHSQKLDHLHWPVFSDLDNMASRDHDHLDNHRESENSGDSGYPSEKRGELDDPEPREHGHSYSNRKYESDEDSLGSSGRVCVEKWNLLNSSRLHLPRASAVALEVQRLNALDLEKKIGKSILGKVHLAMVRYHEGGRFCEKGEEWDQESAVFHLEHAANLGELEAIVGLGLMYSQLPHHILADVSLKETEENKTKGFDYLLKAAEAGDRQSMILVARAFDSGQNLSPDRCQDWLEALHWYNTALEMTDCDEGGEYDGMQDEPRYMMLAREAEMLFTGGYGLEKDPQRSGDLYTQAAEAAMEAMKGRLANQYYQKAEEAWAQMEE
The experiment in a line: Binding affinity to eEF2K (unknown origin) assessed as dissociation constant measured by SPR analysis. On the technique in general: Surface plasmon resonance follows binding to a sensor surface in real time, without labels.

The test system of data set [2] is MDA-MB-231. The experiment in a line: cells. Conditions: Homo sapiens, MDA-MB-231, 72 h, read-out: INH.
Description: Antitumor activity against human MDA-MB-231 cells assessed as inhibition of cell viability by measuring inhibition rate at 20 uM measured after 72 hrs by CCK-8 assay relative to control
The test system of data set [3] is MDA-MB-231. As to the kind of experiment: cells. To be noted: Homo sapiens, MDA-MB-231, 72 h, read-out: INH. The source holds these as a separate data set.
Description: Antitumor activity against human MDA-MB-231 cells assessed as inhibition of cell viability by measuring inhibition rate at 1 uM measured after 72 hrs by CCK-8 assay relative to control
For data set [4], the system named is MDA-MB-231. As to the kind of experiment: cells. To be noted: Homo sapiens, MDA-MB-231, 72 h.
Description: Antitumor activity against human MDA-MB-231 cells assessed as inhibition of cell viability by measuring inhibition rate measured after 72 hrs by CCK-8 assay relative to control
A short description of data set [5]: Kinetic solubility of the compound in PBS buffer at pH 7.4 measured by HPLC analysis.
Data set [6] is described as follows: In vivo antitumor activity against human MDA-MB-231 cells xenografted in female nude mouse assessed as tumor growth inhibition at 10 mg/kg, ip administered every other day relative to control. To be noted: MDA-MB-231, read-out: TGI.
Data set [7] concerns MDA-MB-231. As to the kind of experiment: cells. Conditions: Homo sapiens, MDA-MB-231, 72 h, read-out: INH. The source holds these as a separate data set.
Description: Antitumor activity against human MDA-MB-231 cells assessed as inhibition of cell viability at 100 nM measured after 72 hrs by CCK-8 assay

As a reminder, the Kd is the free concentration of one partner at which half of the binding sites on the other are occupied at equilibrium, for simple one-to-one binding. What is called IC50 is the midpoint of a concentration-inhibition curve. A low value points to higher potency. In general, solubility (kinetic) refers to the concentration staying in solution when a stock, usually in DMSO, is diluted into the medium.

In brackets after ≈: the same amount, converted by molar mass.

On to `Cc1ccc(-n2nc(C(=O)N3CCCC(CNC(=O)OC(C)(C)C)C3)c(=O)n(Cc3cccc(F)c3)c2=O)cc1C` (centres undefined), for which the Kd in data set [1] turned out to be 436 nM. Moreover, in data set [2], the inhibition at 20 µM came out at 96%. Also, in data set [3], the inhibition at 1 µM worked out at 91.2%. For the same compound, 102 nM corresponded to half-maximal inhibition in data set [4] (IC50). This compound registered a solubility (kinetic) in data set [5] of 44 µM (≈ 24.9 µg/mL).
On to `CC(=O)O[C@H]1C(=O)[C@@]2(C)[C@H]([C@H](OC(=O)c3ccccc3)[C@]3(O)C[C@H](OC(=O)[C@H](O)[C@@H](NC(=O)c4ccccc4)c4ccccc4)C(C)=C1C3(C)C)[C@]1(OC(C)=O)CO[C@@H]1C[C@@H]2O` [PACLITAXEL], for which the inhibition in vivo at 10 mg/kg in data set [6] turned out to be 52.7%. Further, the inhibition at 1 µM in data set [3] was 88.9%. In addition, the IC50 in data set [4] stood at 38.3 nM. Also, the inhibition at 0.1 µM in data set [7] is 82.4%.
